Where two headings read alike, the source gives them in different places.
How the values were obtained:
α1B (rat spleen) = molecular target: T1, α1B (rat spleen) (Rattus norvegicus, UniProt P15823); assay: Agonist contraction of smooth muscle tissue, rat spleen; format: cell-based; details: rat spleen; read-out: Agonist Tissue Response (pD2) α1B (rat spleen) (converted)
T1 construct: α1B (rat spleen) and α1D (rat aorta) receptors; from tissue; host or cells: rat spleen
T1 sequence (P15823 1-515): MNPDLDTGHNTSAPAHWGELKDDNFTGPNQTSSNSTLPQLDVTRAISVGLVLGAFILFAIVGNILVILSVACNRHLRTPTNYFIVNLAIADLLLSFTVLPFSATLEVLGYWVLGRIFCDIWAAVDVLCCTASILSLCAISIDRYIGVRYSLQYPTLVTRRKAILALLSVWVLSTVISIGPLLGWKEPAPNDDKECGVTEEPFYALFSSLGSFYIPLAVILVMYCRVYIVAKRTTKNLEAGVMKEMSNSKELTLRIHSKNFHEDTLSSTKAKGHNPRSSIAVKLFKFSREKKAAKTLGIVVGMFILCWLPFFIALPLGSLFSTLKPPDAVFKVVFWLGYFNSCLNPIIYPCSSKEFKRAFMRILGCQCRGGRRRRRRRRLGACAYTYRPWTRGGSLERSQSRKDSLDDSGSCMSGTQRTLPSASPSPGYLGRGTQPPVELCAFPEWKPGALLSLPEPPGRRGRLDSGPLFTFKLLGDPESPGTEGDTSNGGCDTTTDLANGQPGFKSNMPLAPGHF

Anesthetized Dogs [1] = assay: Mean arterial pressure (MAP) in anesthetized dogs; format: in vivo, dog; details: iv dose causing a maximum increase in MAP of 20 mm Hg, anesthetized female dogs
Source text: (§1) In vivo Functional Assays-Assessment of Intrurethral Pressure (IUP) and Mean Arterial Pressure (MAP) in Anesthetized Dogs
(§2) Female dogs (Marshall Farms, North Rose, N.Y.) greater that 2 years of age and weighing between 12 and 15 kg were used in these studies. At least 2 weeks prior to any agonist dosing, dogs were instrumented for the chronic measurement of arterial blood pressure by implanting a telemetry transducer/transmitter (TA11PA-C40, Data Sciences International, St. Paul, Minn.) into a carotid artery.
(§3) On the test day, dogs fasted since the previous afternoon were pre-anesthetized with thiopental sodium 15 mg/kg i.v. (Pentothal™, Abbott) and intubated. Anesthesia was maintained by allowing the dog to spontaneously breathe a mixture of isoflurane (2.5 to 3 volume %) and oxygen delivered by a Narkomed Standard anesthesia system (North American Drager, Telford, Pa.). An Abbocath-T™ i.v. catheter (18-G, Abbott) was inserted into the cephalic vein for the administration of agonists. A telemetry receiver (RA1310, DataSciences) was placed under the head of each dog and was interfaced to a computerized data acquisition system (Modular Instruments Inc.(MI2), Malvern, Pa.) which allowed for the continuous calibrated recording of arterial blood pressure which was electronically filtered to determine its mean value (MAP).
(§4) Dogs with chronic telemetry implants anesthetized as described above were placed in dorsal recumbency and a balloon catheter was inserted into the urethral orifice and advanced approximately 15 cm until the tip was well inside the bladder. The balloon was then inflated with 1 ml of room air and the catheter slowly withdrawn until resistance (corresponding to the bladder neck) was evident. The balloon was then deflated and the catheter withdrawn an additional 2 cm. The balloon was then reinflated and its catheter port connected to a Gould Statham P23Dd pressure transducer interfaced to a computerized data acquisition system (Modular Instruments, Inc., Malvern, Pa.) for the measurement of intraurethral pressure. Increasing iv doses of test agonists were administered and the maximum effect of each dose on IUP was recorded. The effect of each dose was allowed to return to baseline before the next dose was given.
(§5) From the resulting dose response curve, an ED5 value, for the dose causing a maximum increase in IUP of 5 mm Hg, could be estimated. An ED20 value for the dose causing a maximum increase in MAP of 20 mm Hg could also be estimated. A selectivity ratio of MAP ED20 vs. IUP ED5 was calculated.

α1D (rat aorta) = molecular target: T2, α1D (rat aorta) (Rattus norvegicus, UniProt P23944); assay: Agonist contraction of smooth muscle tissue, rat aorta; format: cell-based; details: rat aorta, endothelium removed; read-out: Agonist Tissue Response (pD2) α1D (rat aorta) (converted)
T2 construct: α1B (rat spleen) and α1D (rat aorta) receptors; from tissue; host or cells: rat aorta strips, endothelium removed
T2 sequence (P23944 1-561): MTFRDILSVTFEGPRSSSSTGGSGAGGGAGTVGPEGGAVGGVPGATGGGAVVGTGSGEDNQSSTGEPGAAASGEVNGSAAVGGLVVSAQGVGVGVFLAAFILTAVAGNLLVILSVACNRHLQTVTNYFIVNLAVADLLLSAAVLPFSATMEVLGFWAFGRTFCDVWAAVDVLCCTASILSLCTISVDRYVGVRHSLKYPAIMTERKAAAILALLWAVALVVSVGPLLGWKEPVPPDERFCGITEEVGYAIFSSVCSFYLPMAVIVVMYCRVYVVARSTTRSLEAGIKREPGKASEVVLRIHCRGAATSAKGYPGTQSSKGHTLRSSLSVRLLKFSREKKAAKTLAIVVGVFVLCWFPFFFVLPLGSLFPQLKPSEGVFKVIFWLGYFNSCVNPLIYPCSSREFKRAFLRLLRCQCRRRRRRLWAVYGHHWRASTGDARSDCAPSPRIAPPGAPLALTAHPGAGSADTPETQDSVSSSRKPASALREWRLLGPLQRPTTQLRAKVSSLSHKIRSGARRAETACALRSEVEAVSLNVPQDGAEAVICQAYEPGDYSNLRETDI

Anesthetized Dogs [2] = assay: Intraurethral pressure (IUP) in anesthetized dogs; format: in vivo, dog; details: Canis lupus familiaris; iv dose causing a maximum increase in IUP of 5 mm Hg, anesthetized female dogs; read-out: Mean IUP ED5
[3] = molecular target: T3, α1d (rat receptor expressed in mouse fibroblasts) (Rattus norvegicus, UniProt P23944); assay: Radioligand binding with [3H]-prazosin, α1d; details: rat receptor expressed in mouse fibroblasts, [3H]-prazosin; read-out: Radioligand Binding Ki α1d (Rat)
T3 construct: expressed in transfected cells; host or cells: mouse fibroblasts
T3 sequence (P23944 1-561): T2 sequence (P23944 1-561)
Experimental: (§6) For purposes of discussing α1 adrenoceptor subtypes, the IUPHAR convention of using lower case letters to define molecular clones and upper case letters to indicate pharmacologically defined adrenoceptors has been followed. Compounds of formula I were evaluated in radioligand binding assays specific for α1A (rat submaxillary gland), α1b (hamster receptor expressed in mouse fibroblasts) and α1d (rat receptor expressed in mouse fibroblasts) using [^3H]-prazosin as the radioligand as described in Knepper, et al. J. Pharm.

[4] = molecular target: T4, α1b (hamster receptor expressed in mouse fibroblasts) (Mesocricetus auratus, UniProt P18841); assay: Radioligand binding with [3H]-prazosin, α1b; details: hamster receptor expressed in mouse fibroblasts, [3H]-prazosin; read-out: Radioligand Binding Ki α1b (Hamster)
T4 construct: expressed in transfected cells; host or cells: mouse fibroblasts
T4 sequence (P18841 1-515): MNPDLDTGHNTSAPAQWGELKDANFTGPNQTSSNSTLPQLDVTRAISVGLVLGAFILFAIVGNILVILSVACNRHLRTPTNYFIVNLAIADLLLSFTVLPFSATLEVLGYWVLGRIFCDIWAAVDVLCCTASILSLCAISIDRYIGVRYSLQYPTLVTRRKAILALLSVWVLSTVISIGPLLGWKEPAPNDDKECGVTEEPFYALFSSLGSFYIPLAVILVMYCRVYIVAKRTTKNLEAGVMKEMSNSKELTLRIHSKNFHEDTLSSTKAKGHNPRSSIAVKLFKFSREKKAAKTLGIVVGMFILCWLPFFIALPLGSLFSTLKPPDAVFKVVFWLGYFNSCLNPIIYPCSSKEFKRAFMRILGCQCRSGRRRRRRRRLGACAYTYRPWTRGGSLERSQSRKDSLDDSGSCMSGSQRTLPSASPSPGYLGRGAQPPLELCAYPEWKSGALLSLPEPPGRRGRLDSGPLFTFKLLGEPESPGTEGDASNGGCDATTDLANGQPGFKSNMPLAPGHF
Experimental: as §6

[5] = molecular target: T5, α1A (rat submaxillary gland) (Rattus norvegicus, UniProt P43140); assay: Radioligand binding with [3H]-prazosin, α1A; details: rat submaxillary gland, [3H]-prazosin
T5 construct: α1A (rat submaxillary gland); from tissue; host or cells: rat submaxillary gland
T5 sequence (P43140 1-466): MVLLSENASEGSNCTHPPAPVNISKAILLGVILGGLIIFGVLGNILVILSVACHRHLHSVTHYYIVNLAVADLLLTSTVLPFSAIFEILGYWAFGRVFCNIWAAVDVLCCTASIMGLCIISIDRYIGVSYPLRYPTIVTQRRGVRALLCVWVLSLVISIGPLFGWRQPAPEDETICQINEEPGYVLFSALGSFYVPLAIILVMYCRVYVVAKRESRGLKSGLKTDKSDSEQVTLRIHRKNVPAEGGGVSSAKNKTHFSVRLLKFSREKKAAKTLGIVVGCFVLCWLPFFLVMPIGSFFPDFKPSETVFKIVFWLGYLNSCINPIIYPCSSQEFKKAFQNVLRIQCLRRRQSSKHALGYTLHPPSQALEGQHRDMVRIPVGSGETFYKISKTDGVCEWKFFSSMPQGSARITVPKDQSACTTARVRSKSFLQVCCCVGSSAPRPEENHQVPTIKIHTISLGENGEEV
Experimental: as §6

α1A (rabbit urethra) = molecular target: T6, α1A (rabbit urethra) (Oryctolagus cuniculus, UniProt O02824); assay: Agonist contraction of smooth muscle tissue, rabbit urethra; format: cell-based; details: rabbit urethra; read-out: Agonist Tissue Response (pD2) α1A (rab ureth) (converted)
T6 construct: tested for α1A functional activity using rabbit urethra; from tissue; host or cells: rabbit urethra
T6 sequence (O02824 1-466): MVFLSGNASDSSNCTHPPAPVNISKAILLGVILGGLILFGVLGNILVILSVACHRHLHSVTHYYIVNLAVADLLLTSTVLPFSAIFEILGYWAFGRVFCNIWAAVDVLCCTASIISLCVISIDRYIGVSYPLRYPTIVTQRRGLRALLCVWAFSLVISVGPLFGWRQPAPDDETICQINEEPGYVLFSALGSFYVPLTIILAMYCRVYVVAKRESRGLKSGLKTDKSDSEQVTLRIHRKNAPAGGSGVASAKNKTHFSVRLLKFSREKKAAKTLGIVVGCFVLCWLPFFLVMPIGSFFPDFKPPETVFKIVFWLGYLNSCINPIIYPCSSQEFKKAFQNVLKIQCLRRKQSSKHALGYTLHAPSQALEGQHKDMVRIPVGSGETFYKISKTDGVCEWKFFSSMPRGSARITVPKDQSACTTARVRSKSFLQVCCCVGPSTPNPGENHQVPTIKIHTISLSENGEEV
Experimental: Most of the compounds were tested for α1A functional activity using rabbit urethra as follows. Female New Zealand white rabbits (2.0-3.5 Kg) were sedated with CO2 and decapitated. […] Subsequent experimental conditions were as described above for the other tissues. Agonist concentration response curves were cumulative except for the vas deferens assay in which the transient response made such measurements impractical.

Anesthetized Dogs [6] = assay: Intraurethral pressure (IUP) in anesthetized dogs; format: in vivo, dog; details: iv, anesthetized female dogs
Source text: as §1, §2, §3, §4, §5

Compound | EC50 (α1B (rat spleen)) [µM] | Mean MAP ED20 (Anesthetized Dogs [1]) [nmol/kg] | EC50 (α1D (rat aorta)) [µM] | ED (5 mmHg IUP increase) (Anesthetized Dogs [2]) [µmol/kg] | Ki [3] [µM] | Ki [4] [µM] | Ki [5] [µM] | EC50 (α1A (rabbit urethra)) [µM] | ED (5 mmHg IUP increase) (Anesthetized Dogs [6]; Canis lupus familiaris, iv dose causing a maximum increase in IUP of 5 mm Hg, read-out: Mean IUP ED5) [µmol/kg] | Mean Selectivity Ratio MAP ED20/IUP ED5 (Anesthetized Dogs [6])
CCS(=O)(=O)Nc1cccc(Cc2c[nH]cn2)c1.O=C(O)/C=C\C(=O)O [Example 30, N-[3-(1H-imidazol-4-ylmethyl)phenyl]ethanesulfonamide, maleate] | 0.692 | 80.5 | > 1000 | 0.0121 | 0.279 | 0.882 | 0.135 | – | – | –
Cl.Cn1cnc(C2CCCc3c(NS(C)(=O)=O)cccc32)c1 (stereo not drawn) [Example 14, N-[5,6,7,8-tetrahydro-5-(1-methyl-1H-imidazol-4-yl)-1-naphthalenyl]methanesulfonamide, hydrochloride] | > 1000 | >1000 | > 1000 | > 1 | 1.04 | 2.02 | 0.277 | – | – | –
CCS(=O)(=O)Nc1cccc2c1CCC2c1c[nH]cn1.O=C(O)/C=C\C(=O)O (stereo not drawn) [Example 39, N-[1-(1H-imidazol4-yl)-2,3-dihydro-1H-inden-4-yl]ethanesulfonamide, maleate] | – | 5.6 | – | 0.0044 | – | – | – | – | – | –
O=C(O)/C=C\C(=O)O.O=S(=O)(CC(F)(F)F)Nc1cccc2c1CCCC2c1c[nH]cn1 (stereo not drawn) [Example 20, N-[5,6,7,8-tetrahydro-5-(1H-imidazol-4-yl)-1-naphthalenyl]-2,2,2-trifluoroethanesulfonamide, maleate] | > 1000 | 885 | > 1000 | – | – | – | 0.253 | 2.82 | 0.209 | 6.1
CS(=O)(=O)Nc1cccc2c1OCCC2c1c[nH]cn1.O=C(O)/C=C\C(=O)O (stereo not drawn) [Example 19, N-[4-(1H-imidazol-4-yl)-3,4-dihydro-2H-chromen-8-yl]methanesulfonamide, maleate] | – | – | – | 0.0671 | – | – | – | – | – | –
CS(=O)(=O)Nc1cccc2c1CCC[C@H]2c1c[nH]cn1 [Example 9, (+)-N-[(5R)-5-(1H-imidazol-4-yl)-5,6,7,8-tetrahydro-1-naphthalenyl]methanesulfonamide] | – | 48.7 | – | 0.0204 | – | – | – | – | – | –
CC(=O)Nc1cccc2c1CCCC2c1c[nH]cn1.O=C(O)/C=C\C(=O)O (stereo not drawn) [Example 16, N-[5,6,7,8-tetrahydro-5-(1H-imidazol-4-yl)-1-naphthalenyl]acetamide, maleate] | – | 220 | – | 0.0684 | – | – | – | – | – | –
CS(=O)(=O)Nc1cccc2c1CCC[C@@H]2c1c[nH]cn1 [Example 10, (−)-N-[(5S)-5-(1H-imidazol-4-yl)-5,6,7,8-tetrahydro-1-naphthalenyl]methanesulfonamide] | – | >300 | – | > 0.3 | – | – | – | – | – | –

— patent publication US6503935B1, “Imidazoles and related compounds as α1A agonists” (Abbott Laboratories, priority 1998, dated 2003)
